These results are taken from patent US4999344A, “Phosphatidyl treatment of rapidly proliferating cells” (priority 1988, dated 1991).

For data set [1], the system named is multi-drug resistant MCF-7 ADR^R breast cancer cells. The data set is described as follows: TCA-precipitable 2-[3H]methylthymidine incorporation. In kind it is cell-based. Particulars: thymidine incorporation. The procedure:
MCF-7 cells were continuously exposed to increasing concentrations of adriamycin resulting in multidrug-resistance (mdr) as a stable genetic trait (Batist et al., J. Biol. Chem. (1986) 261:[…]). The mdr cells are referred to as ADR^R cells. MCF-7 WT (wild-type) and ADR^R cells were plated at 1000 cells/well (9.6 cm^2) in RPMI 1640 supplemented with 10% fetal bovine serum (day 1). Plant PI (0.5-150 μM) in the form of multilamellar vesicles (Jett and Alving, in Methods in Enzymology 141B (eds. Conn. P.M. and Means A.R.) 459-466, Academic Press, Orlando, FL 1987) or adriamycin (1-2000 nM) was added to the cultures on day 2. At day 8-10, the fluid was removed and clones were fixed, stained and counted. Colonies were scored positive if >40 cells/clone Adriamycin (10-500 nM) or plant PI (20-200 μM) was added at the time of cell plating. At day 8-10, the colony forming units of granulocytes and monocytes (CFV-GM) were counted. The results were the average of triplicate experiments.
In order to further assess cell viability between wild-type (MCF-7 wild-type cell line) (WT) and multi-drug resistant MCF-7 ADR^R (MDR^R) breast cancer cells, tests involving TCA-precipitable 2-[^3 H]methylthymidine incorporation were employed. MCF-7 WT and ADR^R cells were plated (Day 1) at 1500 cells/well in 96-well cluster plates. […] Results were expressed as the geometric mean of triplicate cultures.

The subject of data set [2] is MCF-7 wild-type (WT) breast cancer cells. Described as above. As to conditions: thymidine incorporation. In kind it is cell-based. The procedure: In order to further assess cell viability between wild-type (MCF-7 wild-type cell line) (WT) and multi-drug resistant MCF-7 ADR^R (MDR^R) breast cancer cells, tests involving TCA-precipitable 2-[^3 H]methylthymidine incorporation were employed. MCF-7 WT and ADR^R cells were plated (Day 1) at 1500 cells/well in 96-well cluster plates. On Day 2, phospholipid preparations were added to triplicate cultures. On Day 7, 2-[^3 H]methylthymidine was added and the cells harvested as described (Jett et al., Cancer Res. (1985) 45:4810-4815), using 5% TCA as the wash buffer. Results were expressed as the geometric mean of triplicate cultures.
(Dividing cells build labelled thymidine or BrdU into new DNA.)

Data set [3] has as its system N4TG1 neuroblastoma cells. The data set is described as follows: Fate of liposomal PI after incubation with N4TG1 neuroblastoma cells. In kind it is in vitro ADME, mouse. The source says: Lipids were dried and resuspended exactly as described previously in the Biochem. Biophys. Res. Commun. article. In the use of ([^14 C]linoleoyl)PI, ([^14 C]oleoyl)PI, or ([^14 C]arachidonoyl)PI the phospholipids were used in a 2:1 molar combination with cholesterol. Cholesterol was included in the liposomes in order to minimize the net transfer of cholesterol into or out of the cells. ([^3 H]myo-Inositol)PI was used as a tracer (1%) with bovine liver PI as the bulk phospholipid carrier for forming liposomes. [^3 H]Linoleic acid was used as a tracer (4%) in liposomes containing linoleic acid:PI (yeast or animal): cholesterol, 2:1. […]
In order to extract lipids, methanol and chloroform were added to cell homogenates to obtain a single phase of CHCl3 :CH3 OH:H2 O (1:2:1 8, v/v) containing 0.1M HCl, according to Bligh and Dyer in Can. […] The lipid compositions of the cell extracts were determined by thin layer chromatography on silica gel precoated sheets (E. M. Reagents; E. Merck, FRG) using the following solvent systems: (a) chloroform:methanol: acetic acid:water, 25:15:4:2 (v/v) (used for phospholipid separation): (b) 1-propanol:4.3M ammonia containing 10 mM EDTA, 65:35 (v/v) (used for PIP and PIP2 separations); and (c) chloroform:acetone, 1:1 (v/v) (used for DG and fatty acid separations). […]

Data set [4] has as its system N4TG1 Neuroblastoma. The data set is described as follows: LD50 to tumor cells of various preparations of PI. Format: cell-based. Particulars: Mus musculus. From the text:
(§1) FIGS. 5 through 7 a show comparisons of the effects of liposomes having varous phospholipids containing defined fatty acids on [^3 H-methyl]-thymidine uptake. Thymidine uptake is a method of assessing cell viability of cultured cells, and decreased thymidine uptake occurs as a result of cytotoxicity caused by contact with toxic substances. , MRC-5 normal embryonic lung fibroblasts; , W1-38SV/40 transformed embryonic human lung fibroblasts; .quadrature..quadrature., SK-N-MC human glioblastoma cells and , N4TG1 mouse neuroblastoma cells.
(§2) [methyl-^3 H]Thymidine (New England Nuclear) incorporation was carried out using 96-well plates (Costar). Thymidine incorporation was used as an assay for cell viability, since in the previous studies described in the Biochem. Biophys. Res. Commun. (1983) article, other methods of assessing cell viability, including microscopic evaluation in the presence of trypan blue, gave identical results. Fifty μl of cell suspension (4×10^5 cells/ml) were added to duplicate wells. Approximately 18 hours later 25 μl of the PI-containing liposomes were added to give a final concentration of phospholipid of 200 μM (approximately, 14 nmol/2-3×10^4 cells). At various intervals after PI addition [^3 H]thymidine, 1 μCi/well was added and incubated with the cells for 3 hours. Cells were collected on glass fiber filter mats by a mechanical cell harvester (Skatron, Inc.) using a combination of scraping and fluid turbulence (saline). Filters were dried and the material was solubilized by incubation overnight with NCS tissue solubilizer and counted in the presence of Spectrafluor (Amersham).
(§3) Res Commun. article cited above. The LD50 values for some of the cell lines reported in the Biochem. Biophys. Res. Commun. article are compared with LD50 values obtained using Avanti plant PI or synthetic ([14 C]linoleoyl)PI.

For data set [5], the system named is SK-N-MC. The data set is described as follows: LD50 to tumor cells of various preparations of PI. In kind it is cell-based. Particulars: Homo sapiens.
Description: as §1, §2, §3

Data set [6] deals with WI-38/SV-40. The data set is described as follows: LD50 to tumor cells of various preparations of PI. In kind it is cell-based. As to conditions: Homo sapiens.
Description: as §1, §2, §3

The nature of data set [7]: Sedimentation of liposomes by low speed / differential centrifugation. Particulars: label used as liposome marker. In kind it is physicochemical. The source says: In both FIGS. 4a and 4b, pellets 1, 2, and 3 were obtained by differential centrifugation.
Data set [8] concerns N4TG1. The data set is described as follows: Liposomal uptake by normal and tumor cells. In kind it is cell-based, mouse. As to conditions: tumor cells N4TG1. The procedure:
(§4) Thymidine uptake is a method of assessing cell viability of cultured cells, and decreased thymidine uptake occurs as a result of cytotoxicity caused by contact with toxic substances. , MRC-5 normal embryonic lung fibroblasts; , W1-38SV/40 transformed embryonic human lung fibroblasts; .quadrature..quadrature., SK-N-MC human glioblastoma cells and , N4TG1 mouse neuroblastoma cells.
(§5) Cells were treated with liposomes containing synthetic preparations of PI (left frames) or PC (right frames) containing palmitic acid in the sn-1 position and either [^14 C]linoleic acid in the sn-2 position (FIGS. 5 and 5a) or [^14 C]arachidonic acid in the sn-2 position (FIGS. 6 and 6a) or [^14 C]oleic acid in the sn-2 position (FIGS. 7 and 7a). The liposomes were comprised of the indicated phospholipids (PI or PC) and cholesterol in a molar ratio of 2:1.
(§6) The data in Table 5 was obtained concomitantly with the toxicity studies in FIGS. 5-7a.

The test system of data set [9] is HT-144. The data set is described as follows: Liposomal uptake by normal and tumor cells. Format: cell-based, human. As to conditions: tumor cells HT-144. The procedure: as §5, §6
In data set [10] the test system is HT-144. The data set is described as follows: LD50 to tumor cells of various preparations of PI. Format: cell-based. As to conditions: Homo sapiens. As to the method: as §2, §3
For data set [11], the system named is SK-N-MC. The data set is described as follows: Liposomal uptake by normal and tumor cells. As to conditions: tumor cells SK-N-MC. Format: cell-based, human. As to the method: as §4, §5, §6
Data set [12] has as its system WI-38/SV-40. The data set is described as follows: Liposomal uptake by normal and tumor cells. Format: cell-based, human. The procedure:
as §4, §5, §6

Data set [13] concerns MRC-5. The data set is described as follows: Liposomal uptake by normal and tumor cells. Format: cell-based. Particulars: normal cells MRC-5. As to the method: as §4, §5, §6
In data set [14] the test system is N4TG1 neuroblastoma cells. The data set is described as follows: Thymidine uptake (cell viability) by N4TG1 neuroblastoma cells incubated with liposomes. Particulars: FIG. 1. In kind it is cell-based, mouse. The procedure: Plant PI(S) is from the Sigma Chemical Company and plant PI(A) is from Avanti Polar Lipids, Inc. and ([^14 C]linoleoyl)PI is the synthetic PI.
FIGS. 3a and 3b show the effect of increasing the molar fraction of synthetic PI or animal PI in liposomes on (a) thymidine uptake (FIG. 3a) and myo-inositol uptake (FIG. 3b) by N4TG1 neuroblastoma cells, .circle. 100 μm PI, 200 μm PI, 300 μm PI. Cells were incubated with liposomes made up of the various combinations indicated (mol %) of ([^14 C]linoleoyl)PI and animal PI.
FIGS. 9a, b, c, and d show the effect of inhibitors on PI toxicity to tumor cells.
Lipids were dried and resuspended exactly as described previously in the Biochem. Biophys. Res. Commun. article. In the use of ([^14 C]linoleoyl)PI, ([^14 C]oleoyl)PI, or ([^14 C]arachidonoyl)PI the phospholipids were used in a 2:1 molar combination with cholesterol. Cholesterol was included in the liposomes in order to minimize the net transfer of cholesterol into or out of the cells. ([^3 H]myo-Inositol)PI was used as a tracer (1%) with bovine liver PI as the bulk phospholipid carrier for forming liposomes. [^3 H]Linoleic acid was used as a tracer (4%) in liposomes containing linoleic acid:PI (yeast or animal): cholesterol, 2:1. It was shown that it is not necessary to have cholesterol present to observe the cytotoxicity.
The N4TG1 mouse neuroblastoma cell line was obtained from Dr. Peter Chiang (Walter Reed Army Institute of Research) and cultured using Dulbecco's minimal essential medium (MEM: Grand Island Biological Co.) containing 10% fetal bovine serum. Cells were routinely started from frozen cultures every 6 weeks in order to assure that the cells used were from low passage cultures.
as §2
In FIGS. 1 and 2 the curves were quite reproducible and representative experiments are shown. Because of fluctuations (<5%) in control values, the data were "normalized" by comparison with daily controls and expressed as "percentage of control in absence of PI." Typical values for uptake of [^3 H]thymidine by controls are shown in the inserts in FIGS. 1 and 2.

The test system of data set [15] is Human marrow CFV-GM. The data set is described as follows: Colony forming units of granulocytes and monocytes. In kind it is cell-based. As to conditions: Monocyte, 192 h.
Data set [16] relates to tumor cells from cultured cell lines. As to conditions: earlier articles; cited from earlier work.

As to `CCCCC/C=C\C/C=C\CCCCCCCC(=O)O[C@H](COC(=O)CCCCCCCCCCCCCCC)COP(=O)([O-])OCC[N+](C)(C)C`, the toxicity result in [1] and in data set [2] was “not as toxic as synthetic phosphatidylinositol containing the identical fatty acids” each time.
Take `CCCCC/C=C\C/C=C\CCCCCCC[14C](=O)O[C@H](COC(=O)CCCCCCCCCCCCCCC)COP(=O)(O)O[C@@H]1[C@H](O)[C@H](O)[C@@H](O)[C@H](O)[C@H]1O` [([^14 C]linoleoyl)PI, sn-3-phosphatidyl(1-palmitoyl-2-[1'-^14 C]linoleoyl)myo-inositol]: the “DG (diglycerides)” value in data set [3] is on record as 0.8. Further, the half-maximal inhibitory concentration (IC50) (in general, the concentration at which inhibition is half-maximal) was found to be 25 µM in data set [4] (3 hours); 25 µM in [4] (8 hours); 39 µM in data set [5] (3 hours); 38 µM in [5] (8 hours); 65 µM in data set [6] (3 hours); 35 µM in [6] (8 hours). The half-maximal inhibitory concentration (IC50) in data set [10] (3 hours) and in data set [10] (8 hours) was 25 µM in each case. In data set [7], the “liposomes sedimented by low speed centrifugation” value is 8%. Moreover, the “liposomes which did not sediment” value in data set [7] came to 92%. Further, the Liposomal uptake in data set [8] is 0.39 nMoles of phospholipid/1 × 10^5 cells; in data set [9], 0.39 nMoles of phospholipid/1 × 10^5 cells; in data set [11], 0.45 nMoles of phospholipid/1 × 10^5 cells; in data set [12], 0.39 nMoles of phospholipid/1 × 10^5 cells; in [13], 0.09 nMoles of phospholipid/1 × 10^5 cells. For the same compound, the “effectiveness vs plant PI from Sigma” value in data set [14] is reported as “slightly more effective”.
As for `COc1cccc2c1C(=O)c1c(O)c3c(c(O)c1C2=O)C[C@@](O)(C(=O)CO)C[C@@H]3O[C@H]1C[C@H](N)[C@H](O)[C@H](C)O1` [adriamycin], the concentration for half-maximal inhibition (IC50) in data set [15] stood at 0.08 µM.
As to `CCCCCCCC/C=C\CCCCCCCC(=O)O[C@H]1CC[C@@]2(C)C(=CC[C@H]3[C@@H]4CC[C@H]([C@H](C)CCCC(C)C)[C@@]4(C)CC[C@@H]32)C1` [cholesteryl oleate], in data set [16], the “anti-tumor effect / selective killing of tumor cells” value was “reduced the anti-tumor effect”.
In the case of `CCCCCCCCCCCCCCCCCC(=O)OCC(COP(=O)([O-])OCC[N+](C)(C)C)OC(=O)CCCCCCCCCCCCCCCCC` (centres unmarked) [distearoyl phosphatidyl choline, reference compound], the toxicity entry in data set [1] and in data set [2] was “no toxicity” each time.
